Inhibition in vivo and GI50 data for 1 compound are collected here from ChEMBL document CHEMBL1773045, “Conjugate (MTC-220) of muramyl dipeptide analogue and paclitaxel prevents both tumor growth and metastasis in mice” (J Med Chem, 2011).

The structures appear in SMILES notation.

One may read the GI50 as the concentration that inhibits growth by half.

Common to all, as to type: functional
The subject of experiment [1] is MDA-MB-231. The experiment is described as follows: Antitumor activity against human MDA-MB-231 cells xenografted in nu/nu BALB/c mouse assessed as tumor growth inhibition at 30 mg/kg, ip qd for 12 days measured on day 25 relative to control. The following applies: MDA-MB-231, ip, route intraperitoneal, read-out: GI.
Experiment [2] in a line: Antitumor activity against human ES2 cells xenografted in nu/nu BALB/c mouse assessed as tumor growth inhibition at 30 mg/kg, ip qd for 12 days measured on day 21 relative to control. Conditions: ES-2, ip, route intraperitoneal, read-out: GI. For orientation: Xenograft models place foreign cells or tissue in a host animal.
Experiment [3] concerns NCI-H460. In words: Antitumor activity against human H460 cells xenografted in nu/nu BALB/c mouse assessed as tumor growth inhibition at 20 mg/kg, ip qd for 24 days measured on day 25 relative to control. The following applies: route intraperitoneal, read-out: GI.
The subject of experiment [4] is Lewis lung carcinoma cell line. The experiment is described as follows: Antimetastatic activity against mouse LLC cells xenografted in C57BL/6 mouse assessed as inhibition of lung metastasis at 10 mg/kg, ip qd for 15 days relative to control. Conditions: 360 h, route intraperitoneal, read-out: GI.
Experiment [5] relates to HL-60(TB). In words: Growth inhibition of human HL-60(TB) cells after 48 hrs by sulforhodamine B assay. The following applies: HL-60, 48 h. For orientation: In SRB staining, fixed cells bind dye roughly in proportion to their protein.
For experiment [6], the system named is K562. In words: Growth inhibition of human K562 cells after 48 hrs by sulforhodamine B assay. The following applies: K562, 48 h.
In experiment [7] the test system is MOLT-4. In words: Growth inhibition of human MOLT4 cells after 48 hrs by sulforhodamine B assay. Conditions: MOLT-4, 48 h.
Experiment [8] is described as follows: Growth inhibition of human […] cells after 48 hrs by sulforhodamine B assay.
Experiment [9] concerns U-251. The experiment is described as follows: Growth inhibition of human U251 cells after 48 hrs by sulforhodamine B assay. Conditions: U-251, 48 h.
Experiment [10] deals with SK-MEL-5. In words: Growth inhibition of human SK-MEL-5 cells after 48 hrs by sulforhodamine B assay. Conditions: SK-MEL-5, 48 h.
In experiment [11] the test system is SK-OV-3. In words: Growth inhibition of human SKOV3 cells after 48 hrs by sulforhodamine B assay. The following applies: SK-OV-3, 48 h.

With `CC(=O)O[C@H]1C(=O)[C@@]2(C)[C@H]([C@H](OC(=O)c3ccccc3)[C@]3(O)C[C@H](OC(=O)[C@H](OC(=O)CCC(=O)NCCCC[C@H](NC(=O)CC[C@H](NC(=O)[C@H](C)NC(=O)/C=C/c4ccc(Cl)cc4)C(N)=O)C(N)=O)[C@H](NC(=O)c4ccccc4)c4ccccc4)C(C)=C1C3(C)C)[C@]1(OC(C)=O)CO[C@@H]1C[C@@H]2O`, the inhibition in vivo at 30 mg/kg in [1] came out at 87%; in experiment [2], 36.4%. The inhibition in vivo at 20 mg/kg in experiment [3] was 52.9%. Also, the inhibition in vivo at 10 mg/kg in experiment [4] came out at 47.4%. Also, the GI50 in experiment [5], in experiment [6], in experiment [7], in experiment [8], in experiment [9] and in experiment [10] was less than 0.01 µM throughout. Besides, in experiment [11], the GI50 was less than 0.01 µM.
